Reference: US7670579B2, “Nanostructured bioactive materials prepared by dual nozzle spray drying techniques” (American Dental Association Foundation, priority 2004, dated 2010)

Tests used:
[1] = Solubility of salts in saturated spray drying solutions (Table 2); type: physicochemical
Text: Other examples of the methods of the invention include formation of nano particles of other components. For example, compositions of solution to be spray dried for preparing nano particles of various calcium phosphate phases are set forth in Table 2. Because MCPM is highly soluble, the solution for the nano MCPM production can be prepared by dissolving an appropriate amount of MCPM or other sources of Ca (for example CaCO3) and P (for example H3PO4) in a solution of the desired concentration (Table 2). For the preparation of nano particles of other calcium phosphates, a volatile weak acid is used to facilitate solubilization of the calcium phosphate ions. […] In general, a minimum amount of the volatile weak acid, necessary to keep the calcium and phosphate ions in the solution, is used to facilitate the removal of the acid in the spray drying process.

[2] = cited from earlier work
[3] = Reaction of CaF2 with macro DCPD in water paste, XRD; type: physicochemical; conditions: paste with water 1g/1 mL, 100% humidity, 37° C., 24 h
Description: In another test, mixtures containing a macro (median size 1.6 μm) DCPD and either the nano CaF2 or a macro CaF2 were mixed with water (1g/1 mL) and the pastes were left in 100% humidity at 37° C. for 24 h.

[4] = comparison value for crystalline CaF2; cited from earlier work
[5] = acetic acid, high: DCPD/DCPA 996, OCP 995, ACP/TCP 985, HA 998 mmol/L
[6] = acetic acid, low: DCPD/DCPA 0, OCP 0.04, ACP/TCP 0, HA 0.122 mmol/L
[7] = carbonic acid, high: DCPD/DCPA 1000 mol/L, OCP 1018, ACP/TCP 1152, HA 1004 mmol/L
[8] = carbonic acid, low: DCPD/DCPA 0, OCP 0.04, ACP/TCP 0, HA 0.164 mmol/L

| Molecule | [Ca] of saturated solution [1, 5] [mmol/L] | [P] of saturated solution [1, 5] [mmol/L] | pH of saturated solution [1, 5] | [Ca] of saturated solution [1, 6] [mmol/L] | [P] of saturated solution [1, 6] [mmol/L] | pH of saturated solution [1, 6] | [Ca] of saturated solution [1, 7] [mmol/L] | [P] of saturated solution [1, 7] [mmol/L] | pH of saturated solution [1, 7] | [Ca] of saturated solution [1, 8] [mmol/L] | [P] of saturated solution [1, 8] [mmol/L] | pH of saturated solution [1, 8] | IAP(HA) ([2]; comparison value for crystalline HA) | pIAP(HA) ([2]; comparison value for macro scale HA) | consumption of CaF2 by reaction with DCPD (XRD) [3] | Ksp [4] |
| --- | --- | --- | --- | --- | --- | --- | --- | --- | --- | --- | --- | --- | --- | --- | --- | --- |
| Hydroxyapatite [HA] | 132 | 79 | 3.9 | 0.1 | 0.06 | 6.8 | 14.2 | 8.54 | 4.6 | 0.1 | 0.06 | 6.8 | 1×10^−117 | 117 | – | – |
| [Ca+2].[F-].[F-] [crystalline CaF2, Calcium fluoride] | – | – | – | – | – | – | – | – | – | – | – | – | – | – | no reduction | 3.9×10^−11 |
